Test results published in patent US20130059879A1, “Small Molecule Inhibitors of PFKFB3 and Glycolytic Flux and Their Methods of Use as Anti-Cancer Therapeutics” (UNIVERSITY OF LOUISVILLE RESEARCH FOUNDATION, INC., priority 2010, published 2013).

Test system: U937
Test: Cancer cell proliferation, Alamar Blue assay, 72 hours
Type: cell-based
Settings: Homo sapiens, U-937
Method: (§1) The ability of the compounds described herein to kill or inhibit the proliferation of cancer cells was measured using either the MTT assay, or the Alamar Blue assay, or the Cell Titer Glow® assay using 48 or 72 hours exposure. […] The procedures are briefly described below. Cells of the desired tumor cell line were plated at 2×10^5 cells/ml in 96 well plates. Twice the indicated concentrations of the compounds of the invention were added to cells the following day in an equal volume of media. 72 hours later, cells were lysed and subjected to ATP determination using the CellTiter Glo-Luminescent Cell Viability Assay kit (Promega, Madison, Wis.). Experiments were done in triplicate. When using the MTT assay or the Alamar blue assay, the experimental conditions are essentially similar; at the end of the incubation period, 20 microliters of the MTT solution is added per well and the samples are incubated for an additional four hours, rinsed, and the absorbance at 570 nm measured. […] Table 2 lists the IC50 values for the compounds of the invention in several cell lines including Jurkat, Calu-6, NCI-H82, U937, HCT-116, and MDA-MB-231 cancer cell lines.

Row | IC50 [µM] | Compound
1 | 0.165 | O=C(c1ccccc1)c1cc2c(ccc3ccccc32)[nH]1 [ACT-PFK-065, (3H-Benzo[e]indol-2-yl)-phenyl-methanone]

Test system: Jurkat
Test: as above
Type: cell-based
Settings: Homo sapiens, Jurkat
Method: as §1

Row | IC50 [µM] | Compound
2 | 0.775 | O=C(c1ccccc1)c1cc2c(ccc3ccccc32)[nH]1 [ACT-PFK-065, (3H-Benzo[e]indol-2-yl)-phenyl-methanone]

Test system: HCT-116
Test: as above
Type: cell-based
Settings: Homo sapiens, HCT-116
Method: as §1

Row | IC50 [µM] | Compound
3 | 1.31 | O=C(c1ccccc1)c1cc2c(ccc3ccccc32)[nH]1 [ACT-PFK-065, (3H-Benzo[e]indol-2-yl)-phenyl-methanone]

Test system: MDA-MB-231
Test: as above
Type: cell-based
Settings: Homo sapiens
Method: as §1

Row | IC50 [µM] | Compound
4 | 0.625 | O=C(c1ccccc1)c1cc2c(ccc3ccccc32)[nH]1 [ACT-PFK-065, (3H-Benzo[e]indol-2-yl)-phenyl-methanone]

Test system: NCI-H82
Test: as above
Type: cell-based
Settings: Homo sapiens, NCI-H82, read-out: IC50 NCl-H82
Method: as §1

Row | IC50 [µM] | Compound
5 | 0.283 | O=C(c1ccccc1)c1cc2c(ccc3ccccc32)[nH]1 [ACT-PFK-065, (3H-Benzo[e]indol-2-yl)-phenyl-methanone]

Test system: Calu-6
Test: as above
Type: cell-based
Settings: Homo sapiens, Calu-6
Method: as §1

Row | IC50 [µM] | Compound
6 | 0.267 | O=C(c1ccccc1)c1cc2c(ccc3ccccc32)[nH]1 [ACT-PFK-065, (3H-Benzo[e]indol-2-yl)-phenyl-methanone]

Test system: not listed separately
Test: Pharmacokinetics in mice
Type: in vivo, Balbc mice
Settings: IV 10 mg/kg, male Balbc mice
Method: The pharmacokinetic parameters for several compounds were determined in mice following IV (intravenous), IP (intraperitoneal), or PO (per os) administration, as well as in rats and dogs. A typical study design includes six Balbc male mice 7 to 8 weeks old. For instance, a dose of 10 mg/kg was administered IV using a 5% DMS0/90% Captisol (20% in water) solution or other pharmaceutically acceptable parenteral and oral formulations. Blood samples were collected at different intervals. Plasma samples were extracted and analyzed using an LC-MS/MS method. Similar protocols were used for the rats (Sprague Dawley rats) or dogs (beagles) PK studies; in the case of dogs PK studies, the number of animals per group was three.
PFK-065 was dosed at 10 mg/kg in male Balbc mice; PFK-095 was dosed at 10 mg/kg in male Sprague Dawley rats; and PFK-112 dosed at 6 mg/kg in male beagle dogs.

Row | T1/2b [h] | Compound
7 | 2.1 | O=C(c1ccccc1)c1cc2c(ccc3ccccc32)[nH]1 [ACT-PFK-065, (3H-Benzo[e]indol-2-yl)-phenyl-methanone]

Same assay, conditions: mouse, plasma; IV 10 mg/kg, male Balbc mice

Row | AUC(0-inf) [ng·h/mL] | Cmax [ng/mL] | Vd [L/kg] | Compound
8 | 2630 | 4110 | 11.2 | O=C(c1ccccc1)c1cc2c(ccc3ccccc32)[nH]1 [ACT-PFK-065, (3H-Benzo[e]indol-2-yl)-phenyl-methanone]

Same assay, conditions: oral bioavailability, Balbc mice, PO 20 mg/kg vs IV 10 mg/kg

Row | % F (from PO group) [%] | Compound
9 | 25 | O=C(c1ccccc1)c1cc2c(ccc3ccccc32)[nH]1 [ACT-PFK-065, (3H-Benzo[e]indol-2-yl)-phenyl-methanone]

Test system: not listed separately
Test: Microsomal stability in human liver microsomes
Type: in vitro ADME
Settings: 0 min
Method: Microsomal stability in vitro in different biologic media (liver microsomes, S9 fraction, hepatocytes) and species is ascertained to evaluate the rate at which a compound undergoes metabolism in the experimental in vitro conditions. Results for some compounds of the invention after a 60 minutes incubation period in human liver microsomes are shown in the Table 6 below. […] Experimental conditions are briefly described here: the stability in human liver microsomes of several compounds was done over […] at 37° C. using pooled mixed gender human liver microsomes. These liver microsomes were prepared at 1.0 mg/ml of microsomal protein in a 100 mM potassium phosphate pH 7.4 buffer with 1 mM NADPH. The media was incubated at 37° C. with the compound in solution in DMSO. The concentration of the compound was followed by LC/MS-MS as a function of time. Samples were assayed at t=0, 15, 30, and 60 minutes. Testosterone was used as a positive control. The same experiment was performed with mouse, rat or dog liver microsomes instead of human liver microsomes.

Row | HLM, Mean metabolized (%) | Compound
10 | 0.0 | O=C(c1ccccc1)c1cc2c(ccc3ccccc32)[nH]1 [ACT-PFK-065, (3H-Benzo[e]indol-2-yl)-phenyl-methanone]

Same assay, conditions: 60 min incubation, 1.0 mg/ml microsomal protein, 1 mM NADPH, 37° C.

Row | HLM, Mean metabolized (%) | Compound
11 | 93 | O=C(c1ccccc1)c1cc2c(ccc3ccccc32)[nH]1 [ACT-PFK-065, (3H-Benzo[e]indol-2-yl)-phenyl-methanone]

Test system: not listed separately
Test: Cell permeability in Caco2 monolayers
Type: in vitro ADME
Settings: human, Caco-2, Caco2 cells, apical to basal, pH 7.4
From the text: The determination of the permeability in Caco2 or MDR1-MDCK cells is widely used when screening compounds to assess cell permeability, intestinal drug transport and predict absorption rates and to ascertain if a compound might be a Pgp substrate and have cross the blood brain barrier. […] Comparison of the apical to basal (A-B) and basal to apical (B-A) values show if a compound is actively effluxed out the cells and if it is a Pgp substrate. […] Briefly, cell permeability and transport mechanisms in Caco-2 and MDR1-MDCK monolayers experiments were performed in triplicate in the apical-to-basolateral and basolateral-to-apical direction using Transwell wells containing either Caco-2 or MDR1-MDCK monolayers. A modified Hanks buffer pH 7.4 was used in both reservoir and receiver wells with the addition of 1% BSA in the receiver side. Confluent monolayers were used and their integrity was verified using reference compounds (Atenolol as a low permeability reference compound and Propanolol as a high permeability reference compound). A sample in the basolateral and apical sides was taken after 2 hours and the concentration measured by LC/MS-MS.

Row | Papp A→B at 2 h [×10⁻⁶ cm/s] | Compound
12 | 10.3 | O=C(c1ccccc1)c1cc2c(ccc3ccccc32)[nH]1 [ACT-PFK-065, (3H-Benzo[e]indol-2-yl)-phenyl-methanone]

Same assay, conditions: human, Caco-2, Caco2 cells, basal to apical, pH 7.4

Row | Papp B→A at 2 h [×10⁻⁶ cm/s] | Compound
13 | 5.9 | O=C(c1ccccc1)c1cc2c(ccc3ccccc32)[nH]1 [ACT-PFK-065, (3H-Benzo[e]indol-2-yl)-phenyl-methanone]

Target: T1, PFKFB3 (Homo sapiens, UniProt Q16875)
T1 construct: GST
Test: Inhibition of recombinant PFKFB3 kinase activity (ADP Glow assay)
Type: biochemical
Settings: 250 nM analog concentration; read-out: % Inhibition of PFKFB3 Enzymatic Activity
Method: PFKFB3 was prepared by expression in E. coli and purified by GST column and column chromatography. […] The recombinant protein was pure and active as determined by the results of a kinase activity assay commercially available (such as ADP Glow® assay, […]). The same assay was used to determine the inhibition of the protein and the results are shown in Table 5 below (IC50 values or percent inhibition at a fixed concentration). Results confirmed that the compounds of the invention have low nanomolar IC50 values, interacting with PFKFB3 and inhibiting its enzymatic activity.

T1 sequence (Q16875 whole entry, species assumed): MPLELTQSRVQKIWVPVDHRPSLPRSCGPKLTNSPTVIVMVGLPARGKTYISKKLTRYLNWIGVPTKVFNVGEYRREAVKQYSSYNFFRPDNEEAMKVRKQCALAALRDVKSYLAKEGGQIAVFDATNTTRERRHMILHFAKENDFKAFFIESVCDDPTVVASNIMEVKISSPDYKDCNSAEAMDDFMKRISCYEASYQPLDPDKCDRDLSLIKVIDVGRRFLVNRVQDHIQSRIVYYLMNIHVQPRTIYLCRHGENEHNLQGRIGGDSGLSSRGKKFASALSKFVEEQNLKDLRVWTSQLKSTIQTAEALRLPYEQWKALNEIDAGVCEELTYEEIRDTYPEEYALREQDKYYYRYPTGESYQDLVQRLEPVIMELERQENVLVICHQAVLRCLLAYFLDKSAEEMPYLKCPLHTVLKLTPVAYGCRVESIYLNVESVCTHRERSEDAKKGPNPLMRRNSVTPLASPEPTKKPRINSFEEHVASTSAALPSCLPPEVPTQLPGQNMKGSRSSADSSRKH

Row | inhibition at 0.25 µM [%] | Compound
14 | 13.5 | O=C(c1ccccc1)c1cc2c(ccc3ccccc32)[nH]1 [ACT-PFK-065, (3H-Benzo[e]indol-2-yl)-phenyl-methanone]
